Measured values reported in patent US6548494B1, “Tricyclic inhibitors of poly(ADP-ribose) polymerases” (Agouron Pharmaceuticals, Inc., priority 1999, dated 2003).
Where “and” joins values, the source holds several entries; their conditions need not be identical. Identical values can stand only once.

target: purified PARP protein (Homo sapiens, UniProt P09874); assay: PARP enzyme inhibition assay; assay type: biochemical; details: 20 nM purified PARP (5 nM for tight-binding inhibitors), 500 μM NAD+, 25° C.; several values in one cell = repeat determinations; read-out: Inhibition Constant Ki
Sequence (P09874 whole entry): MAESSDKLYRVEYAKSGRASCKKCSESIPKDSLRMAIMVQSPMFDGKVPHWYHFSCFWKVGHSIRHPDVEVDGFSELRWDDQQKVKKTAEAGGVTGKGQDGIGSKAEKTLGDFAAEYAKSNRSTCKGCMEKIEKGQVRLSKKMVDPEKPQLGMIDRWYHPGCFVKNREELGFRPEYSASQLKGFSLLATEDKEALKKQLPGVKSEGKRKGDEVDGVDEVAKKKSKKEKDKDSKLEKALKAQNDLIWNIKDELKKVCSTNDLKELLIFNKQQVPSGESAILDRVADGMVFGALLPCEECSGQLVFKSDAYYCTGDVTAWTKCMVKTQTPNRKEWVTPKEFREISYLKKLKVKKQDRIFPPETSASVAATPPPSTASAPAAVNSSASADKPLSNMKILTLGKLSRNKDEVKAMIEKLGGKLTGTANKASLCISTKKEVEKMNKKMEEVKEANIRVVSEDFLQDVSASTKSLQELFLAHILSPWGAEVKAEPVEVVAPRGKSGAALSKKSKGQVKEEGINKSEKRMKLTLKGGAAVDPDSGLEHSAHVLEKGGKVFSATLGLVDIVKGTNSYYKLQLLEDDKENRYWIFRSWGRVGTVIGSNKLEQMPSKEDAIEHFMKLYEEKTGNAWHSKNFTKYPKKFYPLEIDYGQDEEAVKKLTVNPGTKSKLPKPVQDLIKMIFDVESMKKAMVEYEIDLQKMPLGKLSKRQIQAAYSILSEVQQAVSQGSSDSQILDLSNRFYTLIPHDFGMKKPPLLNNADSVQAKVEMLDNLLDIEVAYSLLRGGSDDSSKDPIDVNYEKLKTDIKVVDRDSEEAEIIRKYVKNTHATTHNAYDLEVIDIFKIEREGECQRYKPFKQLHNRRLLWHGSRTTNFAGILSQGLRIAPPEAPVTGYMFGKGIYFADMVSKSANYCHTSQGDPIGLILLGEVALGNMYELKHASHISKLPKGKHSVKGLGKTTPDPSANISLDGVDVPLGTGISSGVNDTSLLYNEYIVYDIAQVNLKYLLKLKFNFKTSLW

Ki	SMILES
7.9 nM	O=C1NCCn2c(-c3ccc(CN4CCc5ccccc5C4)cc3)nc3cccc1c32 [Example 198, 1-[4-(3,4-Dihydro-1H-isoquinolin-2-ylmethyl)-phenyl]-8,9-dihydro-7H-2,7,9a-triaza-benzo[cd]azulen-6-one]
6.8 nM	CN(Cc1ccccc1)Cc1ccc(-c2nc3cccc4c3n2CCNC4=O)cc1 [Example 199, 1-[4-(Benzyl-methyl-amino-methyl)-phenyl]-8,9-dihydro-7H-2,7,9a-triaza-benzo[cd]azulen-6-one]
6 nM	CC(CNCc1ccc(-c2nc3cccc4c3n2CCNC4=O)cc1)c1ccccc1 (stereo not drawn) [Example 200, 1-{4-[(2-Phenyl-propylamino)-methyl]-phenyl}-8,9-dihydro-7H-2,7,9a-triaza-benzo[cd]azulen-6-one]
5.8 nM	O=C1NCCn2c(-c3ccc(CNCCCc4ccccc4)cc3)nc3cccc1c32 [Example 201, 1-{4-[(3-Phenyl-propylamino)-methyl]-phenyl}-8,9-dihydro-7H-2,7,9a-triaza-benzo[cd]azulen-6-one]
3.2 nM	CN(CCc1ccccn1)Cc1ccc(-c2nc3cccc4c3n2CCNC4=O)cc1 [Example 202, 1-(4-{[Methyl-(2-pyridin-2-yl-ethyl)-amino]-methyl}-phenyl)-8,9-dihydro-7H-2,7,9a-triaza-benzo[cd]azulen-6-one]
7.9 nM	O=C1NCCn2c(-c3ccc(CNCCc4ccccn4)cc3)nc3cccc1c32 [Example 204, 1-{4-[(2-Pyridin-2-yl-ethylamino)-methyl]-phenyl}-8,9-dihydro-7H-2,7,9a-triaza-benzo[cd]azulen-6-one]
4.7 nM	CN(CCc1ccncc1)Cc1ccc(-c2nc3cccc4c3n2CCNC4=O)cc1 [Example 205, 1-(4-{[Methyl-(2-pyridin-4-yl-ethyl)-amino]-methyl}-phenyl)-8,9-dihydro-7H-2,7,9a-triaza-benzo[cd]azulen-6-one]
6.4 nM	O=C1NCCn2c(-c3ccc(CNCCc4ccncc4)cc3)nc3cccc1c32 [Example 206, 1-{4-[(2-Pyridin-4-yl-ethylamino)-methyl]-phenyl}-8,9-dihydro-7H-2,7,9a-triaza-benzo[cd]azulen-6-one]
7.4 nM	O=C1NCCn2c(-c3ccc(Cn4ccnc4)cc3)nc3cccc1c32 [Example 213, 1-(4-Imidazol-1-ylmethyl-phenyl)-8,9-dihydro-7H-2,7,9a-triaza-benzo[cd]azulen-6-one]
4 nM	O=C1NCCn2c(-c3ccc(Cn4cccc4)cc3)nc3cccc1c32 [Example 220, 1-(4-Pyrrol-1-ylmethyl-phenyl)-8,9-dihydro-7H-2,7,9a-triaza-benzo[cd]azulen-6-one]

More lines, now with the values behind:

SMILES	Ki
CC1CCC(C)N1Cc1ccc(-c2nc3cccc4c3n2CCNC4=O)cc1 (stereo not drawn) [Example 214, 1-[4-(2,5-Dimethyl-pyrrolidin-1-ylmethyl)-phenyl]-8,9-dihydro-7H-2,7,9a-triaza-benzo[cd]azulen-6-one]	8.3 nM
CC1(C)CC2CC(C)(CN2Cc2ccc(-c3nc4cccc5c4n3CCNC5=O)cc2)C1 (stereo not drawn) [Example 215, 1-[4-(1,3,3-Trimethyl-6-aza-bicyclo[3.2.1]oct-6-ylmethyl)-phenyl]-8,9-dihydro-7H-2,7,9a-triaza-benzo[cd]azulen-6-one]	11 nM
COC[C@@H]1CC[C@@H](COC)N1Cc1ccc(-c2nc3cccc4c3n2CCNC4=O)cc1 [Example 216, 1-[4-((2S,5S)-2,5-bis-Methoxymethyl-pyrrolidin-1-ylmethyl)-phenyl]-8,9-dihydro-7H-2,7,9a-triaza-benzo[cd]azulen-6-one]	27 nM
O=C1NCCn2c(-c3ccc(CN4CCC[C@@H]4C(=O)OCc4ccccc4)cc3)nc3cccc1c32 [Example 217, (R)-1-[4-(6-oxo-6,7,8,9-Tetrahydro-2,7,9a-triaza-benzo[cd]azulen-1-yl)-benzyl]-pyrrolidine-2-carboxylic Acid Benzyl Ester]	26 nM
CC(C)(C)OC(=O)[C@H]1CCCN1Cc1ccc(-c2nc3cccc4c3n2CCNC4=O)cc1 [Example 218, (R)-1-[4-(6-oxo-6,7,8,9-Tetrahydro-2,7,9a-triaza-benzo[cd]azulen-1-yl)-benzyl]-pyrrolidine-2-carboxylic Acid tert-Butyl Ester]	17 nM
CC(C)(C)OC(=O)NC1CCN(Cc2ccc(-c3nc4cccc5c4n3CCNC5=O)cc2)C1 (stereo not drawn) [Example 219, {1-[4-(6-oxo-6,7,8,9-Tetrahydro-2,7,9a-triaza-benzo[cd]azulen-1-yl)-benzyl]-pyrrolidin-3-yl}-carbamic Acid tert-Butyl Ester]	11 nM
C[C@H]1Cn2c(-c3ccc(CN(C)C)cc3)nc3cccc(c32)C(=O)N1 [Example 221, (S)-1-(4-Dimethylaminomethyl-phenyl)-8-methyl-8,9-dihydro-7H-2,7,9a-triaza-benzo[cd]azulen-6-one]	5 nM
C[C@H]1Cn2c(-c3ccc(CO)cc3)nc3cccc(c32)C(=O)N1 [Example 221a, (S)-1-(4-Hydroxymethyl-phenyl)-8-methyl-8,9-dihydro-7H-2,7,9a-triaza-benzo[cd]azulen-6-one]	10 nM
CNCc1ccc(-c2nc3cccc4c3n2C[C@H](C)NC4=O)cc1 [Example 222, (S)-8-Methyl-1-(4-methylaminomethyl-phenyl)-8,9-dihydro-7H-2,7,9a-triaza-benzo[cd]azulen-6-one]	2 nM and 2.3 nM and 3.5 nM
N#Cc1ccc(-c2nc3cccc4c3n2CCNC4=O)cc1 [Example 227, 4-(6-oxo-6,7,8,9-Tetrahydro-2,7,9a-triaza-benzo[cd]azulen-1-y)-benzonitrile]	2.2 nM
CC(C)CC(O)c1ccc(-c2nc3cccc4c3n2CCNC4=O)cc1 (stereo not drawn) [Example 228, 1-[4-(1-Hydroxy-3-methyl-butyl)-phenyl]-8,9-dihydro-7H-2,7,9a-triaza-benzo[cd]azulen-6-one]	4.6 nM
CC(C)CC(c1ccc(-c2nc3cccc4c3n2CCNC4=O)cc1)N1CC=CC1 (stereo not drawn) [Example 229, 1-{4-[1-(2,5-Dihydro-pyrrol-1-yl)-3-methyl-butyl]-phenyl}-8,9-dihydro-7H-2,7,9a-triaza-benzo[cd]azulen-6-one]	5.3 nM and 6.8 nM
CC(C)CC(c1ccc(-c2nc3cccc4c3n2CCNC4=O)cc1)N1CCCC1 (stereo not drawn) [Example 230, 1-[4-(3-Methyl-1-pyrrolidin-1-yl-butyl)-phenyl]-8,9-dihydro-7H-2,7,9a-triaza-benzo[cd]azulen-6-one]	5.3 nM
CC(C)CC(c1ccc(-c2nc3cccc4c3n2CCNC4=O)cc1)N(C)C (stereo not drawn) [Example 231, 1-[4-(Dimethylamino-methyl-butyl)-phenyl]-8,9-dihydro-7H-2,7,9a-triaza-benzo[cd]azulen-6-one]	6.9 nM
C[C@H]1Cn2c(-c3ccc(Cn4cccc4)cc3)nc3cccc(c32)C(=O)N1 [Example 234, (S)-8-Methyl-1-(4-pyrrol-1-ylmethyl-phenyl)-8,9-dihydro-7H -2,7,9a-triaza-benzo[cd]azulen-6-one]	8.7 nM
C[C@@H]1Cn2c(-c3ccc(Cl)cc3)nc3cccc(c32)C(=O)N1 [Example 236, (R)-1-(4-Chloro-phenyl)-8-methyl-8,9-dihydro-7H-2,7,9a-triaza-benzo[cd]azulen-6-one]	113 nM
O=C1N[C@@H](CO)Cn2c(-c3ccc(Cl)cc3)nc3cccc1c32 [Example 237, (R)-1-(4-Chloro-phenyl)-8-hydroxymethyl-8,9-dihydro-7H-2,7,9a-triaza-benzo[cd]azulen-6-one]	5 nM and 6 nM
